The nature of series [1]: Measurement of pyrolysis temperature by differential scanning calorimeter. It counts as physicochemical. To be noted: endothermic substance; DSC, heating rate 10°C/min, temperature at maximum heat flow. On the procedure: The endothermic substance may have a pyrolysis temperature of 50°C or more. The pyrolysis temperature of the endothermic substance may be 300°C or less. The pyrolysis temperature may also be referred to as a temperature at which the endothermic substance undergoes an endothermic reaction (endothermic reaction temperature). The pyrolysis may mean that a material is chemically decomposed into a simpler material when heat has been applied thereto. The pyrolysis temperature may mean a temperature at which the pyrolysis occurs. The pyrolysis temperature of the endothermic substance may be 300°C or less, 280°C or less, 260°C or less, 240°C or less, 220°C or less, 200°C or less, 180°C or less, 160°C or less, 140°C or less, 120°C or less, or 100°C or less. The pyrolysis temperature of the endothermic substance may be specifically 50°C or more, 60°C or more, 70°C or more, 80°C or more, 90°C or more, 100°C or more, 120°C or more, 140°C or more, 160°C or more, or 180°C or more. When the endothermic substance is heated to the pyrolysis temperature, it may be decomposed into components constituting the endothermic substance through endotherm. When the pyrolysis temperature of the endothermic substance is within the range, there is no or little endothermic reaction at a normal operating temperature of the battery, and if the thermal runaway of the battery occurs, a cooling effect may be provided to the ignited battery cell through the endothermic reaction (e.g., pyrolysis) of the endothermic substance, and it may be advantageous in terms of delaying thermal transfer to adjacent battery cells. The pyrolysis temperature may be a value measured while increasing the temperature at a rate of 10°C/min using a differential scanning calorimeter (DSC Q2000, TA Corporation). From the differential scanning calorimeter, a graph may be obtained in which the x-axis is temperatures (°C) and the y-axis is heat flows (W/g), and in the graph, the temperature at the point where a heat flow (W/g) value, for example, an absolute value of a heat flow (W/g) is maximum may be set as the pyrolysis temperature.
For endothermic substances used in Examples and Comparative Examples, pyrolysis temperatures were measured while increasing the temperature at a rate of 10°C/min using a differential scanning calorimeter (DSC Q2000, TA Corporation), and the results were described in Table 1. Specifically, 0.2 to 0.5 mg of a sample was placed in a crucible of the differential scanning calorimeter, and then a lid with a single hole penetrated with a punching needle was covered thereon. In a state where the crucible was placed in the center of a press, and a plunger was moved downward by turning a lever until no pressure was further applied downward, the crucible and lid were placed in the differential scanning calorimeter equipment, and a thermal analysis was performed. From the differential scanning calorimeter, a graph with temperature (°C) on the x-axis and heat flow (W/g) on the y-axis could be obtained, and the temperature at the point where the heat flow (W/g) value is maximum in the graph was defined as the pyrolysis temperature.

The conditions of series [2]: endothermic substance; cited from earlier work.
Series [3] in a line: Measurement of solubility in water. It counts as physicochemical. To be noted: endothermic substance; 20°C, added by 1g to 100 ml of water until precipitate. On the procedure:
The endothermic substance may be a water-soluble substance.
Specifically, while the samples were each added by 1g to 100 ml of water at 20°C, the weight of the sample before a precipitate occurred was measured. The presence of the precipitate was visually observed; if no precipitate has occurred, it is observed transparently.

In series [1], `[Cl-].[Na+]` [NaCl] had a Pyrolysis temperature of 801 °C. Also, the Thermal conductivity in series [2] is 3.13~3.87 W/mK.
As for `O.O.O.O.O.O.[Cl-].[Cl-].[Mg+2]` [MgCl2·6H2O], the Pyrolysis temperature in series [1] was determined as 107 °C. Further, the Thermal conductivity in series [2] is reported as 0.15~0.96 W/mK.
In the case of `O.O.O.O.O.O.O.O.O.O.O.O.O.O.O.O.O.O.O=S(=O)([O-])[O-].O=S(=O)([O-])[O-].O=S(=O)([O-])[O-].[Al+3].[Al+3]` [Al2(SO4)3·18H2O], in series [1], the Pyrolysis temperature worked out at 102 °C. For the same compound, in series [2], the Thermal conductivity was 0.24~0.31 W/mK.
`[Cl-].[K+]` [KCl]: the Pyrolysis temperature in series [1] stood at 770 °C. In addition, in series [2], the Thermal conductivity is on record as 6.53 W/mK. For the same compound, the Solubility in water in series [3] was at least 30 g/100ml.
In series [1], `[Cl-].[Cl-].[Mg+2]` [MgCl2] displayed a Pyrolysis temperature of 714 °C. The Thermal conductivity in series [2] is given as 0.5 W/mK.
`OB(O)O` [Example H3BO3, H3BO3] yielded a Pyrolysis temperature in series [1] of 136 °C. Besides, the Thermal conductivity in series [2] is recorded as 1 or less W/mK.
In turn, `[O]=[Al][O][Al]=[O]` [Al2O3] returned a Pyrolysis temperature in series [1] of 2000 °C. Also, in series [2], the Thermal conductivity is on record as 18 W/mK. The compound also displayed a Solubility in water in series [3] of 0 g/100ml.
Consider `O.O.O.O.O.O.O.O.O.O.O.O.O=S(=O)([O-])[O-].O=S(=O)([O-])[O-].[Al+3].[K+]` [KAl(SO4)2·12H2O], for which the Pyrolysis temperature in series [1] worked out at 90 °C. Moreover, in series [2], the Thermal conductivity is given as 0.55 W/mK.
`[OH][Al]([OH])[OH]` [Al(OH)3]: the Pyrolysis temperature in series [1] worked out at 297 °C. Also, the Thermal conductivity in series [2] was 26 W/mK.
In series [1], `[Mg+2].[OH-].[OH-]` [Mg(OH)2] gave a Pyrolysis temperature of 330 °C. In addition, the Thermal conductivity in series [2] is given as 42~60 W/mK.
In series [1], `[O]=[Mg]` [MgO] gave a Pyrolysis temperature of 2800 °C. Further, in series [2], the Thermal conductivity is 30 W/mK. The same compound gave a Solubility in water in series [3] of 0 g/100ml.

The values above are taken from patent publication EP4745196A1, “RESIN COMPOSITION” (LG Chem, Ltd., priority 2023, dated 2025).
